# Values joined by “and” are separate entries in the source; they are usually repeats but may differ in a detail not shown here. Equal values may be shown once.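 In this assay, cells in 96-well plates receive the compound at five concentrations for 48 hours. Endpoints are linearly interpolated between the surrounding concentrations. GI50 is the concentration that inhibits growth by half. TGI denotes the concentration required for complete inhibition of growth.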
# Key:
# Assay in all cases: inhibition of tumour cell growth, NCI panel, 48 h
# CAKI-1 renal = test system: CAKI-1 renal
# COLO 205 colon = test system: COLO 205 colon
# EKVX NSCLC = test system: EKVX NSCLC
# NCI-H522 lung = test system: NCI-H522 lung
# SF-295 CNS = test system: SF-295 CNS
# SNB-75 CNS = test system: SNB-75 CNS
# TK-10 renal = test system: TK-10 renal
# UACC-257 melanoma = test system: UACC-257 melanoma
# DMS 114 small cell lung = test system: DMS 114 small cell lung
# SNB-78 CNS = test system: SNB-78 CNS
Structure (SMILES),GI50 (CAKI-1 renal) [µM],TGI (CAKI-1 renal) [µM],GI50 (COLO 205 colon) [µM],TGI (COLO 205 colon) [µM],GI50 (EKVX NSCLC) [µM],TGI (EKVX NSCLC) [µM],GI50 (NCI-H522 lung),TGI (NCI-H522 lung) [µM],GI50 (SF-295 CNS) [µM],TGI (SF-295 CNS) [µM],GI50 (SNB-75 CNS),TGI (SNB-75 CNS),GI50 (TK-10 renal) [µM],TGI (TK-10 renal) [µM],GI50 (UACC-257 melanoma) [µM],TGI (UACC-257 melanoma) [µM],TGI (DMS 114 small cell lung) [µM],TGI (SNB-78 CNS) [µM]
Cc1c(C(=O)O[C@H]2[C@@H]3[C@H](C)CC[C@H]3[C@]3(C)O[C@@]2(C2CCCCC2)C[C@H]3OC(=O)CO)ccc2ccccc12,0.244,6.82,9.2,17.5,6.94,14.2,7.11 µM,13.8,7.04,13.6,2.98 µM,11 µM,8.12,15.4,7.83,14.8,,
N#Cc1c2c(c(-c3cccs3)n(C3OC(CO)C(O)C(O)C3O)c1=S)CCc1ccccc1-2 (stereo unspecified),,> 100,,> 100,,> 100,12.8 µM and 3.62 µM,> 100,,> 100,3.49 µM and 1.55 µM,> 29.3 µM and 12.7 µM,,> 100,,> 100,,
C[N+](C)(C)CC1CCCC/C1=N\O (stereo unspecified),,,,> 100,,> 100,,> 100,,> 100,,,,> 100,,> 100,> 100,> 100
COc1cc2c(cc1OC)-c1ncc3cc4c(cc3c1C2)OCO4,38.5,> 100,61.1,> 100,22,72.3,13.2 µM,48.4,46.2,> 100,64.1 µM,> 100 µM,43.2,> 100,48.4,> 100,,
N=C(N)SCCc1ccccn1,,> 100,,> 100,,> 100,,> 100,,> 100,39.7 µM and > 100 µM,> 100 µM,,> 100,,> 100,,
CCCn1c(N)c(C(=O)CNc2ccc(I)cc2)c(=O)[nH]c1=O,6.53,> 100,,> 100,> 64.3,> 100,16 µM,> 100,0.795,> 63.6,2.12 µM,> 40.1 µM,16.7,> 100,,> 100,,
COc1ccc(/C=N/N=C(\[O-])c2ccncc2)cc1F.COc1ccc(/C=N\N=C(/[O-])c2ccncc2)cc1F.[Cu+2],38.6,> 100,19.7,42.2,24.3,76.3,12.7 µM,26.1,11.2,26.5,14.6 µM,28.2 µM,19.9,48,17.9,40.2,,
CCOC(=O)NC(=O)c1c[nH]c(=O)[nH]c1=O,,> 100,,> 100,,> 100,,,,> 100,,> 100 µM,,> 100,,> 100,> 100,> 100
CC1=C(C(=O)Nc2ccccc2)C(c2ccc(C(C)C)cc2)C(C(=O)Nc2ccccc2)=C(C)N1,,> 100,,28.6,,> 88,,45.4,,> 100,,99.3 µM,,> 100,,,47.5,> 100
CCCCOc1ccc(/C=N/Nc2cc(C)nc3ccc(Cl)cc23)cc1,1.68,3.07,2.01,4.03,1.63,3.01,1.72 µM,3.29,1.66,3.1,1.75 µM,3.33 µM,1.87,3.28,1.61,3.11,,
CC(=O)CC(=O)/C=C/c1cccs1,,> 100,,> 100,,> 100,,> 100,,> 100,,,,> 100,,> 100,> 100,
Cc1ccc2c(c1)C(=O)c1c-2n(CCCN=[N+]=[N-])c(=O)c2cc([N+](=O)[O-])ccc12,53.9,> 100,> 100,> 100,> 100,> 100,25.8 µM,> 100,> 100,> 100,1.26 µM,58.6 µM,99.8,> 100,> 100,> 100,,
NS(=O)(=O)c1ccc(NC(=O)Nc2ccccc2F)cc1,,> 100,,> 100,,> 100,,> 100,,> 100,,> 100 µM,,> 100,,> 100,,
COc1c(N2CCN(Cn3c(O)c(N=NC(=O)c4ccncc4)c4cc(F)ccc43)C(C)C2)c(F)cc2c(=O)c(C(=O)O)cn(C3CC3)c12 (stereo unspecified),> 50,> 50,> 50,> 50,35.2,> 50,> 50 µM,> 50,23.9,> 50,> 50 µM,> 50 µM,12.5,37.2,> 50,> 50,,
C1CC[N-]CC1.CC(=N\O)/C(C)=N/O.CC(=N\O)/C(C)=N/O.[CH2-]CCN1CCOCC1.[Co+2],> 100,> 100,> 100,> 100,> 100,> 100,> 100 µM,> 100,> 100,> 100,> 100 µM,> 100 µM,> 100,> 100,98.1,> 100,,
COc1cc([C@@H]2c3cc4c(cc3C(OC3O[C@@H]5COC(C)O[C@H]5[C@H](O)[C@H]3O)C3COC(=O)[C@@H]32)OCO4)cc(OC)c1O (stereo partly specified),1.83,> 28.1,3.68,21.3,11.4,> 50,0.65 µM,4.91,0.72,9.83,1.18 µM,> 18.9 µM,3.56,15.4,2.12,> 50,,
OCC(O)C(OC1OC(CO)C(O)C(O)C1O)c1nn(-c2ccccc2)c2nc3cc(Cl)ccc3nc12 (stereo unspecified),,,,,,> 100,,> 100,,> 100,,> 100 µM,,> 100,,> 100,> 100,> 100
